The values below come from patent US20260314597A1, “A NOVEL APPROACH TO INTERFERE IN THE PHENYLPROPANOID BIOSYNTHETIC PATHWAY TO REDUCE PINK-RIB DISORDER IN FRESH LETTUCE” (University of Florida Research Foundation, Inc., priority 2022, published 2026).

One test concerns peach fruit. Conditions: cited from earlier work.
The subject of test [1] is cassava roots. To be noted: cited from earlier work.
Test [2] has as its system cassava roots. Conditions: melatonin 0.1 mM, cited from earlier work.
A further test concerns pear flesh. To be noted: melatonin 0.1 mM, cited from earlier work.
The subject of a further test is loquat. Conditions: melatonin; 25 d storage at 4° C.; cited from earlier work.
Test [3] concerns key enzymes in the melatonin biosynthesis pathway. Conditions: strawberry; cited from earlier work.
In test [4] the test system is litchi fruit. To be noted: cited from earlier work.
Test [5] concerns metabolites in wounded Romaine lettuce midrib. Put plainly: Untargeted LC-MS/MS metabolomics of melatonin-treated wounded midribs (Test 3). It counts as in vivo, lettuce (Romaine 'Manatee'). The procedure: For Test 1, the evaluations for pink rib development, protein quantification, and enzyme activity were conducted with Romaine and iceberg lettuce heads (36 heads per type; cultivars unknown) purchased (February 2020) upon arrival at a local grocery store in Gainesville, FL, and immediately transported to the Postharvest Horticulture Laboratory at the University of Florida in Gainesville, FL. For Test 2, metabolite extraction and detection were conducted with commercially grown, harvested, and cooled Romaine (‘Tall Guzmaine’) and iceberg (‘Chosen’) lettuce (December 2020) grown in Belle Glade, FL. For Test 3, untargeted metabolomics was performed using commercially grown, harvested, and cooled Romaine (‘Manatee’) lettuce grown in Belle Glade, FL (April 2021). To keep the lettuce head samples cool while preventing freeze damage during transport, a 3- to 6-inch layer of crushed ice was placed on the bottom of each 114-L cooler. A piece of waxed, corrugated fiberboard was placed on top of the ice prior to packing with the lettuce samples for transport the same day to the Postharvest Horticulture Laboratory in Gainesville (approximately 4 h distant).
In all tests, experimental setup began immediately upon arrival to the laboratory. 90 outer leaves were randomly selected from 18 to 22 lettuce heads that met commercial and damage-free quality standards. A midrib segment (12.5 cm) was excised from the center of each leaf and excess leaf blade tissue was trimmed parallel to the midrib. This procedure was adapted from the wounding procedure of Cantwell (2016). Each midrib was then partially sliced transversally at 1.3-cm increments along the midrib. Midribs (n=15) were immediately immersed for 30 s in one of five treatment solutions: deionized water (wounded control), L-cysteine (4.1 mM), naringenin (1.8 mM) with 20% dimethyl sulfoxide (DMSO), serotonin (2.8 or 5.7 mM) or melatonin (4.3 mM) with 0.50% DMSO. Immediately following immersion, the midribs for each treatment were patted dry using paper towels and placed (n=5) in a breathable, high-density polyethylene bag (n=3) (Narrow Profile Produce Bags [14×18 inches] Model No. S-19156, Uline®, Pleasant Prairie, WI). Unwounded control midribs were stored in the same manner. To allow for direct comparison, each cut site on each midrib was assigned an initial discoloration value on day 1 based on the coloration of the rib. Samples were stored at 5° C. with 95-98% relative humidity (RH) for 5 d, simulating commercial storage.
Unwounded, wounded, and compound-treated wounded midrib samples were collected for untargeted metabolite analysis to identify global metabolite changes in response to melatonin application and targeted metabolite analysis to quantify chlorogenic acid a major caffeoyl compound in lettuce. For both targeted and untargeted metabolite analyses, fresh samples (500-800 mg) of the midribs from each treatment (n=3) were weighed, then immediately frozen in liquid nitrogen and stored at −80° C. for subsequent metabolite extraction. Frozen samples were extracted with a 50% methanol extraction solution containing a 1:1 (v:v) of methanol with deionized water. Samples were completely submerged in a 1:1.5 (w:v) of the sample weight (mg) to extraction solution volume (μL), respectively, and incubated at 65° C. for 90 min and then centrifuged at 9660×g for 10 min (MC-12 High Speed Micro Centrifuge, Benchmark Scientific, Edison, NJ). The supernatant was transferred to a new tube and filtered with a 0.45 μm filter (Choice, Thermo Scientific, Wilmington, DE). An aliquot of 400 μL was vacuum-dried.
For untargeted metabolite analysis, vacuum-dried samples were resuspended into 100 μL of 50% methanol solution containing an internal standard umbelliferon (18 μg mL^−1) and vortexed for 1 min. After centrifugation at 13,000×g for 15 min, the solutions were transferred to sample inserts and analyzed. […]

The test system of test [6] is PAL. To be noted: melatonin 0.1 mM; after 2 d at 4° C.; cited from earlier work.
Test [7] deals with litchi fruit. Conditions: melatonin 0.4 mM, cited from earlier work.
The subject of test [8] is PPO. To be noted: melatonin 0.4 mM; litchi pericarp; up to 6 d; cited from earlier work.
Test [9] has as its system PAL. To be noted: melatonin; 25 d storage at 4° C.; cited from earlier work.
For test [10], the system named is PPO. Conditions: melatonin 0.1 mM; after 2 d; cited from earlier work.
The next test has as its system fresh-cut fennel. To be noted: L-cysteine 0.5% or 41.3 mM; 6 d at 5° C.; cited from earlier work.
Test [11] concerns PPO. To be noted: role: inhibitor; L-cysteine; cited from earlier work.
The test system of test [12] is chlorogenic acid concentration in homogenized lettuce tissue. Conditions: L-cysteine; 24 h at 25° C.; cited from earlier work.
The test system of another test is fresh-cut artichoke. Conditions: L-cysteine 0.5% or 41.3 mM; cited from earlier work.
In test [13] the test system is PPO. Conditions: role: inhibitor; L-cysteine 1 to 5 mM; cited from earlier work.
[14] abbreviates: melatonin, cassava root, vs untreated.

Entries after “also recorded” stand apart in the source; their conditions may differ. Read-outs that look alike come from different tables or passages of the source.

As to `COc1ccc2[nH]cc(CCNC(C)=O)c2c1` [melatonin], in the test with peach fruit (melatonin 0.1 mM, via increased enzyme activity), the lipid peroxidation result is “inhibited lipid peroxidation”. In addition, in the test on peach fruit (melatonin 0.1 mM), the senescence entry is given as “delayed senescence” and the total phenolics entry is “maintained total phenolics”. In the test on peach fruit (melatonin, vs untreated), the antioxidant capacity result is on record as “increased” and the “reactive oxygen species (ROS) levels” value is listed as “declined”. The “key enzymes in the melatonin biosynthesis pathway” value (shortened to “key enzymes”) in the test on cassava roots [1] (cassava) is “Upregulation”. Further, in the test with cassava roots [1] (setting [14]), the antioxidant capacity entry was “increased” and the “reactive oxygen species (ROS) levels” value is recorded as “declined”. In addition, the “antioxidative enzymes that reduce hydrogen peroxide accumulation” value in the test on cassava roots [1] (melatonin, cassava) is reported as “activated”. In the test with cassava roots [2] (28° C., untreated control 6 h), the “time to which vascular streaking disorder was delayed” value is 12 h. In addition, the “delay of vascular streaking / discoloration” value with cassava roots [2] (vs untreated control) is on record as “delayed development of discoloration; also recorded: delayed twice as long as untreated control slices”. Moreover, in the test on pear flesh (after 4 d at 4° C.), the total phenolic content entry is reported as “higher”. Moreover, the inhibition of browning result with pear flesh (pear flesh, 8 d at 4° C.) is “no inhibition of browning”. Moreover, in the test with loquat, the chlorogenic acid concentration result is on record as “increased”; the quality and lignification entry is “maintaining quality and delaying lignification”. Also, the “key enzymes” value in test [3] is given as “Upregulation”. Moreover, the “increase in total phenolics” value in the test with litchi fruit [4] (melatonin 0.4 mM, litchi pericarp, up to 6 d) is given as “approximately 40%”. In addition, in the test on litchi fruit [4] (melatonin 0.4 mM, litchi), the “activity of several antioxidants” value was “increased” and the free radical development entry was “reduced”. Also, the “key enzymes” value with litchi fruit [4] (melatonin, litchi) is “Upregulation”. In addition, in test [5] (Romaine, wounded midrib), the “effect on wounding-related metabolite changes” value is listed as “reduces overall metabolite changes in wounded lettuce midrib; also recorded: substantially affected wounding-related metabolite changes”. In [5] (Romaine, LC/MS), the “chlorogenic acid abundance, melatonin-treated vs wounded” value is “remained similar”. For the same compound, the “number of wounding-diminished compounds increased with melatonin” value in test [5] (of 25 diminished compounds) was 16 compounds. Also, in test [5] (of 25 diminished compounds, vs untreated wounded samples), the “number of wounding-diminished compounds remaining decreased” value stood at 9 compounds. Moreover, in test [5] (of 68 accumulated compounds), the “number of wounding-accumulated compounds reduced in abundance upon melatonin” value is listed as 64 compounds and the “number of wounding-accumulated compounds that maintained high abundancy” value is given as “four”. For the same compound, in the test on PAL [6], the PAL activity entry is on record as “higher”. Moreover, the “delay of pericarp browning” value in the test with litchi fruit [7] (25° C.) was 4 days. Also, the “discoloration of litchi pericarp” value in the test on litchi fruit [7] (up to 6 d) is recorded as “significant decrease”. In the test on PPO [8], the PPO activity entry is listed as “significant decrease”. In addition, in the test on PAL [9], the PAL activity entry was “increased”. The PPO activity result with PPO [10] is given as “significantly lower”.
For `N[C@@H](CS)C(=O)O` [L-cysteine], the “effect on browning of fennel” value in the test with fresh-cut fennel was “no effect; also recorded: ineffective”. Besides, the values for the PPO activity entry in the test with PPO [11] and in the test with PPO [13] were “inhibited PPO activity” and “linear decline in PPO activity”, respectively. For the same compound, the chlorogenic acid concentration entry in [12] is recorded as “reduced chlorogenic acid concentration”. The “effect on browning of artichoke” value with fresh-cut artichoke is “no effect; also recorded: developed browning or became yellow”.
